pIC50: −log10 of the molar value. *1 amine or outer side, *2 acyl side, *3 side chain or, on linkers, in order; H or OH if unused. Where a SMILES comes first, the peptide text is derived from it. Bridges are numbered along the chain shown (N, C = ends). Roman numbers before positions name the chains, in order. [ ]: non-standard residue; d: D form. Phe(4-tBu) = CC(C)(C)c1ccc(C[C@H](N)C(=O)O)cc1; Bip = N[C@@H](Cc1ccc(-c2ccccc2)cc1)C(=O)O; 1Nal = N[C@@H](Cc1cccc2ccccc12)C(=O)O; Diglycolyl = O=C(COCC(=O)[*:2])[*:1]; NMeR = CN[C@@H](CCCNC(=N)N)C(=O)O; β3hE = N[C@@H](CCC(=O)O)CC(=O)O; X1 = O=C(c1ccccc1C[*:2])[*:1]; Pen = CC(C)(S)[C@H](N)C(=O)O; hCys = N[C@@H](CCS)C(=O)O
What follows are compounds tested against T1, RPMI 8866 cells (Homo sapiens, UniProt P13612+P26010) (assay: α4β7-MAdCAM Cell Adhesion Assay). Details: thioether monomer peptides, Table 6; read-out: Cell-Adhesion A4B7.
T1 sequence (P13612 34-1032): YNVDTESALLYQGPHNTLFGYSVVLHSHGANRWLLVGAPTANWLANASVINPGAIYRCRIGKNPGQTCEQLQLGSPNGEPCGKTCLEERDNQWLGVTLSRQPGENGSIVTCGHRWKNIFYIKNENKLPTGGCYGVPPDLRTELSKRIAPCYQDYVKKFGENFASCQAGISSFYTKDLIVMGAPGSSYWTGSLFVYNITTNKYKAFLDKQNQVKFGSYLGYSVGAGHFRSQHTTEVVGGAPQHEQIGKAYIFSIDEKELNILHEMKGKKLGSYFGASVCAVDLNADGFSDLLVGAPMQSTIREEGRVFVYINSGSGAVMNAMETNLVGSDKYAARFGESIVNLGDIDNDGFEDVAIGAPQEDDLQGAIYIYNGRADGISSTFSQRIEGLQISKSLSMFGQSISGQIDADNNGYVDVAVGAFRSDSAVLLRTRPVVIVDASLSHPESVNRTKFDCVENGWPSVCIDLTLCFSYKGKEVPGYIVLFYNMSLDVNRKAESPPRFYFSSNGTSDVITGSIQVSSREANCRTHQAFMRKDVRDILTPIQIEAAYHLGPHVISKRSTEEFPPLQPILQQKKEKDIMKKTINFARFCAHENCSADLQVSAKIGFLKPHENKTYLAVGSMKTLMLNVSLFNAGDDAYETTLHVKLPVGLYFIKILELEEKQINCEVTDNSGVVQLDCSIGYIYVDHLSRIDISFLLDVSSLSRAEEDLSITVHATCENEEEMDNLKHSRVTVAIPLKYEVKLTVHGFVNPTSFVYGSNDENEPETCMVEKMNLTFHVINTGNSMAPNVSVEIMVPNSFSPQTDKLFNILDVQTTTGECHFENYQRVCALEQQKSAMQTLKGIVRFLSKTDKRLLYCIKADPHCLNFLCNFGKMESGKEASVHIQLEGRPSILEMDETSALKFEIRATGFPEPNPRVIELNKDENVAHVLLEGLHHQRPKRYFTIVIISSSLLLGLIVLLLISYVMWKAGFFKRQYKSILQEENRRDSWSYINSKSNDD
T1 sequence (P26010 20-798): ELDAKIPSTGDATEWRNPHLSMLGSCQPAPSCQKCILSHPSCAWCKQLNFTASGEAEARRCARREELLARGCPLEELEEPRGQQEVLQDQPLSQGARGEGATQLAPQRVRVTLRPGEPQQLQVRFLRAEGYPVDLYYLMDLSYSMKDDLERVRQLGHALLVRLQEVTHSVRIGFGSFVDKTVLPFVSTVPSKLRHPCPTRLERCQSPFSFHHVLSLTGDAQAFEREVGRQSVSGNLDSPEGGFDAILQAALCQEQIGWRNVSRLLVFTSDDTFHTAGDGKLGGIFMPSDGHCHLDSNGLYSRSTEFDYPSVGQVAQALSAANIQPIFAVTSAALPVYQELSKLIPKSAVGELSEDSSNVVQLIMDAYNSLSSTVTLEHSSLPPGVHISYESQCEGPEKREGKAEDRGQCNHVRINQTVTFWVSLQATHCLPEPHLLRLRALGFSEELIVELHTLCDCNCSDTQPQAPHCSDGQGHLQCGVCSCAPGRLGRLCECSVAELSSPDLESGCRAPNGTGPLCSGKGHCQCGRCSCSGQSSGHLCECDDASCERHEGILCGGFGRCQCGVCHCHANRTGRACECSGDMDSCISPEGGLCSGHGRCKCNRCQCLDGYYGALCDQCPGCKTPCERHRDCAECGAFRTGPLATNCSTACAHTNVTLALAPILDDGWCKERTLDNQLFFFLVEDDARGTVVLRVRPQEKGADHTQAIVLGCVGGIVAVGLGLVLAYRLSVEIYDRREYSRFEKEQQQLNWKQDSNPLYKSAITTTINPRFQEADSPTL
Type: cell-based
Procedure, shortened: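 RPMI 8866 cells (200,000/well) in DMEM with 1 mM MnCl2 and 0.1% BSA were allowed to adhere 30-45 min at 37° C to plates coated with rh MAdCAM-1/Fc (200 ng/well) in presence of serially diluted peptide. After washing, bound cells quantified by MTT, absorbance 570 nm, cell-free background subtracted.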

Compound	pIC50
CC(C)C[C@@H]1NC(=O)[C@H]([C@@H](C)O)NC(=O)[C@H](CC(=O)O)NC(=O)[C@H](CO)NC(=O)[C@H](CCCNC(=N)N)N(C)C(=O)c2ccccc2CSC(C)(C)[C@@H](C(=O)N[C@@H](Cc2c[nH]c3ccccc23)C(=O)N[C@H](CCC(=O)O)C(=O)N[C@H](CCC(=O)O)C(N)=O)NC1=O [compound 108] (HELM PEPTIDE1{[meR].S.D.T.L.[Pen].W.[dE].[dE].[am]}|CHEM1{[O=C(c1ccccc1C[*:2])[*:1]]}$PEPTIDE1,CHEM1,1:R1-1:R1|PEPTIDE1,CHEM1,6:R3-1:R2$$$V2.0)	7.00 to 7.60
CC(C)C[C@@H]1NC(=O)[C@H]([C@@H](C)O)NC(=O)[C@H](CC(=O)O)NC(=O)[C@H](CO)NC(=O)[C@H](CCCNC(=N)N)N(C)C(=O)c2ccccc2CSC(C)(C)[C@@H](C(=O)N[C@@H](Cc2c[nH]c3ccccc23)C(=O)N[C@H](CCC(=O)O)C(=O)N[C@H](Cc2ccc(O)cc2)C(N)=O)NC1=O [compound 110] (HELM PEPTIDE1{[meR].S.D.T.L.[Pen].W.[dE].[dY].[am]}|CHEM1{[O=C(c1ccccc1C[*:2])[*:1]]}$PEPTIDE1,CHEM1,1:R1-1:R1|PEPTIDE1,CHEM1,6:R3-1:R2$$$V2.0)	7.00 to 7.60
CC(C)C[C@@H]1NC(=O)[C@H]([C@@H](C)O)NC(=O)[C@H](CC(=O)O)NC(=O)[C@H](CO)NC(=O)[C@H](CCCNC(=N)N)N(C)C(=O)c2ccccc2CSC(C)(C)[C@@H](C(=O)N[C@@H](Cc2c[nH]c3ccccc23)C(=O)N[C@H](CCC(=O)O)C(=O)N[C@@H](CCC(=O)O)C(N)=O)NC1=O [compound 113] (HELM PEPTIDE1{[meR].S.D.T.L.[Pen].W.[dE].E.[am]}|CHEM1{[O=C(c1ccccc1C[*:2])[*:1]]}$PEPTIDE1,CHEM1,1:R1-1:R1|PEPTIDE1,CHEM1,6:R3-1:R2$$$V2.0)	7.00 to 7.60
CC(C)C[C@@H]1NC(=O)[C@H]([C@@H](C)O)NC(=O)[C@H](CC(=O)O)NC(=O)[C@H](CO)NC(=O)[C@H](CCCNC(=N)N)N(C)C(=O)c2ccccc2CSC(C)(C)[C@@H](C(=O)N[C@@H](Cc2ccc3ccccc3c2)C(=O)N[C@H](CCC(=O)O)C(N)=O)NC1=O [compound 114] (HELM PEPTIDE1{[meR].S.D.T.L.[Pen].[O=C([C@H](Cc1ccc2ccccc2c1)N[*:1])[*:2]].[dE].[am]}|CHEM1{[O=C(c1ccccc1C[*:2])[*:1]]}$PEPTIDE1,CHEM1,1:R1-1:R1|PEPTIDE1,CHEM1,6:R3-1:R2$$$V2.0)	7.00 to 7.60
CC(C)C[C@@H]1NC(=O)[C@H]([C@@H](C)O)NC(=O)[C@H](CC(=O)O)NC(=O)[C@H](CO)NC(=O)[C@H](CCCNC(=N)N)N(C)C(=O)c2ccccc2CSC(C)(C)[C@@H](C(=O)N[C@@H](Cc2ccc3ccccc3c2)C(N)=O)NC1=O [compound 116] (HELM PEPTIDE1{[meR].S.D.T.L.[Pen].[O=C([C@H](Cc1ccc2ccccc2c1)N[*:1])[*:2]].[am]}|CHEM1{[O=C(c1ccccc1C[*:2])[*:1]]}$PEPTIDE1,CHEM1,1:R1-1:R1|PEPTIDE1,CHEM1,6:R3-1:R2$$$V2.0)	7.00 to 7.60
CC(C)C[C@@H]1NC(=O)[C@H]([C@@H](C)O)NC(=O)[C@H](CC(=O)O)NC(=O)[C@H](CO)NC(=O)[C@H](CCCNC(=N)N)N(C)C(=O)c2ccccc2CSC(C)(C)[C@@H](C(=O)N[C@@H](Cc2ccc(-c3ccccc3)cc2)C(=O)N[C@@H](CCC(=O)O)CC(N)=O)NC1=O [compound 133] ([NMeR]SDTL[Pen][Bip][β3hE]-NH2; linker N-6 via X1)	> 7.60
CC(C)C[C@@H]1NC(=O)[C@H]([C@@H](C)O)NC(=O)[C@H](CC(=O)O)NC(=O)[C@H](CO)NC(=O)[C@H](CCCNC(=N)N)N(C)C(=O)c2ccccc2CSC(C)(C)[C@@H](C(=O)N[C@@H](Cc2ccc(C(C)(C)C)cc2)C(=O)N[C@@H](CCC(=O)O)CC(N)=O)NC1=O [compound 134] ([NMeR]SDTL[Pen][Phe(4-tBu)][β3hE]-NH2; linker N-6 via X1)	> 7.60

Same assay, conditions: thioether peptide dimers, Table 7; read-out: Cell-Adhesion A4B7

Compound	pIC50
CC(C)C[C@@H]1NC(=O)[C@H]([C@@H](C)O)NC(=O)[C@H](CC(=O)O)NC(=O)[C@H](CO)NC(=O)[C@H](CCCNC(=N)N)N(C)C(=O)CSC[C@@H](C(=O)N[C@@H](Cc2c[nH]c3ccccc23)C(=O)N[C@H](CCCCNC(=O)COCC(=O)NCCCC[C@@H](NC(=O)[C@H](Cc2c[nH]c3ccccc23)NC(=O)[C@@H]2CSCC(=O)N(C)[C@@H](CCCNC(=N)N)C(=O)N[C@@H](CO)C(=O)N[C@@H](CC(=O)O)C(=O)N[C@@H]([C@@H](C)O)C(=O)N[C@@H](CC(C)C)C(=O)N2)C(N)=O)C(N)=O)NC1=O [compound 143]	6.00 to 7.00
CC(C)C[C@@H]1NC(=O)[C@H]([C@@H](C)O)NC(=O)[C@H](CC(=O)O)NC(=O)[C@H](CO)NC(=O)[C@H](CCCNC(=N)N)N(C)C(=O)c2ccccc2CSC[C@H](C(=O)N[C@@H](Cc2c[nH]c3ccccc23)C(=O)N[C@@H](CCC(=O)O)CC(=O)N[C@H](CCCCNC(=O)COCC(=O)NCCCC[C@@H](NC(=O)C[C@H](CCC(=O)O)NC(=O)[C@H](Cc2c[nH]c3ccccc23)NC(=O)[C@H]2CSCc3ccccc3C(=O)N(C)[C@@H](CCCNC(=N)N)C(=O)N[C@@H](CO)C(=O)N[C@@H](CC(=O)O)C(=O)N[C@@H]([C@@H](C)O)C(=O)N[C@@H](CC(C)C)C(=O)N2)C(N)=O)C(N)=O)NC1=O [compound 156] (I: [NMeR]SDTL[dC]W[β3hE][dK]-NH2 / II: [NMeR]SDTL[dC]W[β3hE][dK]-NH2; linker I:9-II:9 via Diglycolyl; linker I:N-I:6, II:N-II:6 via X1)	7.00 to 7.60
CC(C)C[C@@H]1NC(=O)[C@H]([C@@H](C)O)NC(=O)[C@H](CC(=O)O)NC(=O)[C@H](CO)NC(=O)[C@H](CCCNC(=N)N)N(C)C(=O)c2ccccc2CSCC[C@@H](C(=O)N[C@@H](Cc2c[nH]c3ccccc23)C(=O)N[C@@H](CCC(=O)O)C(=O)N[C@H](CCCCNC(=O)COCC(=O)NCCCC[C@@H](NC(=O)[C@H](CCC(=O)O)NC(=O)[C@H](Cc2c[nH]c3ccccc23)NC(=O)[C@@H]2CCSCc3ccccc3C(=O)N(C)[C@@H](CCCNC(=N)N)C(=O)N[C@@H](CO)C(=O)N[C@@H](CC(=O)O)C(=O)N[C@@H]([C@@H](C)O)C(=O)N[C@@H](CC(C)C)C(=O)N2)C(N)=O)C(N)=O)NC1=O [compound 157] (I: [NMeR]SDTL[hCys]WE[dK]-NH2 / II: [NMeR]SDTL[hCys]WE[dK]-NH2; linker I:9-II:9 via Diglycolyl; linker I:N-I:6, II:N-II:6 via X1)	7.00 to 7.60
CC(C)C[C@@H]1NC(=O)[C@H]([C@@H](C)O)NC(=O)[C@H](CC(=O)O)NC(=O)[C@H](CO)NC(=O)[C@H](CCCNC(=N)N)N(C)C(=O)c2ccccc2CSC(C)(C)[C@@H](C(=O)N[C@@H](Cc2cccc3ccccc23)C(=O)N[C@H](CCC(=O)O)C(=O)N[C@H](CCCCNC(=O)COCC(=O)NCCCC[C@@H](NC(=O)[C@@H](CCC(=O)O)NC(=O)[C@H](Cc2cccc3ccccc23)NC(=O)[C@H]2NC(=O)[C@H](CC(C)C)NC(=O)[C@H]([C@@H](C)O)NC(=O)[C@H](CC(=O)O)NC(=O)[C@H](CO)NC(=O)[C@H](CCCNC(=N)N)N(C)C(=O)c3ccccc3CSC2(C)C)C(N)=O)C(N)=O)NC1=O [compound 158] (I: [NMeR]SDTL[Pen][1Nal][dE][dK]-NH2 / II: [NMeR]SDTL[Pen][1Nal][dE][dK]-NH2; linker I:9-II:9 via Diglycolyl; linker I:N-I:6, II:N-II:6 via X1)	> 7.60

Source: patent publication US20260217767A1, “NOVEL A4B7 THIOETHER PEPTIDE DIMER ANTAGONISTS” (Protagonist Therapeutics, Inc., priority 2014, published 2026)
